The record followed here is patent US10543212B2, “Substituted amines for treating cardiac diseases” (Cardurion Pharmaceuticals, LLC, priority 2017, dated 2020).

The assay concerns the target T1, Full-length, GST-tagged, human CaMKIIδ (Homo sapiens, UniProt Q13557).
T1 construct: Full-Length, Glutathione-S-Transferase(GST)-Tagged, Human CaMKIIδ was purchased from Carna Biosciences; purchased Carna Biosciences 02-111
Nature of the assay: CaMKIIδ binding assay (TR-FRET with BODIPY-labeled probe ligand). Summed up: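 Compounds were tested as 4-fold, eight-point series for 1 hr at room temperature, and IC50 was obtained by logistic fitting against a 3 μM parent-compound control. Signal came from displacement of a 300 nM BODIPY ligand from 0.5 nM GST-CaMKIIδ, detected via Tb-anti-GST in calmodulin/Ca2+ (pH 7.6).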

The mark [1] stands for this setting: Table 2, CaMKIIδ binding assay, activity given as class A/B/C.
Setting [2] is: Table 2, activity class for CaMKIIδ.
The mark [3] stands for this setting: CaMKIIδ binding assay, activity class per Table 2.

T1 sequence (Q13557 1-478 isoform Q13557-12): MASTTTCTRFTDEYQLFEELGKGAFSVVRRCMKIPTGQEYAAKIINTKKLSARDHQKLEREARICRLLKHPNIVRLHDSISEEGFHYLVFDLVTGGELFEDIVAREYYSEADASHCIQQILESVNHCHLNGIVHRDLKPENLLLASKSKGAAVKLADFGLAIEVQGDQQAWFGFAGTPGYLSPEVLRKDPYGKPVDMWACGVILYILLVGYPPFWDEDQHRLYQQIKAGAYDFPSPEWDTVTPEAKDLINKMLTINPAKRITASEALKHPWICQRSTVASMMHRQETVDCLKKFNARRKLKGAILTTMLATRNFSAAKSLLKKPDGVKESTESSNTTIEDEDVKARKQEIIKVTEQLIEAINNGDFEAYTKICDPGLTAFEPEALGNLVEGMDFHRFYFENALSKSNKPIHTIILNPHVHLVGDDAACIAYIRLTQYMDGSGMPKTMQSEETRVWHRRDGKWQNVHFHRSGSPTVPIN

For the compound `COCCn1cc(Nc2ncc(-c3ccc(Cl)c(O[C@@H](C)Cn4cnnn4)c3)cn2)c(C(F)(F)F)n1` [Example 737, (S)-5-(3-((1-(1H-tetrazol-1-yl)propan-2-yl)oxy)-4-chlorophenyl)-N-(1-(2-methoxyethyl)-3-(trifluoromethyl)-1H-pyrazol-4-yl)pyrimidin-2-amine], the IC50 under setting [1] is 10 to 100 nM.
`C[C@@H](Cn1cnnn1)Oc1cc(-c2cnc(Nc3cn(CC4CCCN(C)C4)nc3C(F)(F)F)nc2)ccc1Cl` (stereo partly drawn) [Example 635, 5-(3-(((S)-1-(1H-tetrazol-1-yl)propan-2-yl)oxy)-4-chlorophenyl)-N-(1-((1-methylpiperidin-3-yl)methyl)-3-(trifluoromethyl)-1H-pyrazol-4-yl)pyrimidin-2-amine] displayed an IC50 under setting [2] of 10 to 100 nM.
With `COCCN1CC2(CC(n3cc(Nc4ncc(-c5ccc(Cl)c(O[C@@H](C)Cn6cnnn6)c5)cn4)c(C(C)C)n3)C2)C1` [Example 1012, (S)-5-(3-((1-(1H-tetrazol-1-yl)propan-2-yl)oxy)-4-chlorophenyl)-N-(3-isopropyl-1-(2-(2-methoxyethyl)-2-azaspiro[3.3]heptan-6-yl)-1H-pyrazol-4-yl)pyrimidin-2-amine], the IC50 under setting [3] was less than 10 nM.
On the same count and under the same terms, the result for `CO[C@H]1CC[C@H](N2CC3(CC(n4cc(Nc5ncc(-c6ccc(Cl)c(O[C@@H](C)Cn7cnnn7)c6)cn5)c(C(C)C)n4)C3)C2)CC1` [Example 980, 5-(3-(((S)-1-(1H-tetrazol-1-yl)propan-2-yl)oxy)-4-chlorophenyl)-N-(3-isopropyl-1-(2-((1r,4r)-4-methoxycyclohexyl)-2-azaspiro[3.3]heptan-6-yl)-1H-pyrazol-4-yl)pyrimidin-2-amine] reads less than 10 nM.
Regarding `C[C@@H](Cn1cnnn1)Oc1cc(-c2cnc(Nc3cn(CC4CN(C5COC5)C4)nc3C(F)(F)F)nc2)ccc1Cl` [Example 598, (S)-5-(3-((1-(1H-tetrazol-1-yl)propan-2-yl)oxy)-4-chlorophenyl)-N-(1-((1-(oxetan-3-yl)azetidin-3-yl)methyl)-3-(trifluoromethyl)-1H-pyrazol-4-yl)pyrimidin-2-amine], the IC50 under setting [2] was less than 10 nM.
As for `C[C@@H](Cn1cnnn1)Oc1cc(-c2cnc(Nc3cn([C@@H]4CCN(C5CCC5)C[C@H]4O)nc3C(F)(F)F)nc2)ccc1Cl` (mixture of isomers) [Example 898, trans-4-(4-((5-(3-(((S)-1-(1H-tetrazol-1-yl)propan-2-yl)oxy)-4-chlorophenyl)pyrimidin-2-yl)amino)-3-(trifluoromethyl)-1H-pyrazol-1-yl)-1-cyclobutylpiperidin-3-ol], under setting [3], the IC50 was less than 10 nM.
On to `Cc1cc(Nc2ncc(-c3ccc(Cl)c(O[C@@H](C)Cn4cnnn4)c3)cn2)n(C)n1` [Example 751, (S)-5-(3-((1-(1H-tetrazol-1-yl)propan-2-yl)oxy)-4-chlorophenyl)-N-(1,3-dimethyl-1H-pyrazol-5-yl)pyrimidin-2-amine], for which, under setting [1], the IC50 was in the range of 10 to 100 nM.
For the setting “CaMKIIδ binding assay, results of Table 2”, `C[C@@H](Cn1cnnn1)Oc1cc(-c2cnc(Nc3cn(C4CCN(C5COC5)CC4)nc3C(F)(F)F)nc2)ccc1Cl` [Example 562, (S)-5-(3-((1-(1H-tetrazol-1-yl)propan-2-yl)oxy)-4-chlorophenyl)-N-(1-(1-(oxetan-3-yl)piperidin-4-yl)-3-(trifluoromethyl)-1H-pyrazol-4-yl)pyrimidin-2-amine] had an IC50 of 10 to 100 nM.
`C[C@@H](Cn1cnnn1)Oc1cc(-c2cnc(Nc3cn(C4CC5(C4)CN(C4COC4)C5)nc3OCC(F)(F)F)nc2)ccc1Cl` [Example 854, (S)-5-(3-((1-(1H-tetrazol-1-yl)propan-2-yl)oxy)-4-chlorophenyl)-N-(1-(2-(oxetan-3-yl)-2-azaspiro[3.3]heptan-6-yl)-3-(2,2,2-trifluoroethoxy)-1H-pyrazol-4-yl)pyrimidin-2-amine] had an IC50 under setting [1] of less than 10 nM.
The compound `CC(O)Cn1cc(Nc2ncc(-c3ccc(Cl)c(O[C@@H](C)Cn4cnnn4)c3)cn2)c(OCC(F)(F)F)n1` (stereo partly drawn) [Example 799, 1-(4-((5-(3-(((S)-1-(1H-tetrazol-1-yl)propan-2-yl)oxy)-4-chlorophenyl)pyrimidin-2-yl)amino)-3-(2,2,2-trifluoroethoxy)-1H-pyrazol-1-yl)propan-2-ol] came in with an IC50 under setting [1] of less than 10 nM.

Usually IC50 stands for the concentration needed to halve the response being measured. High values mean weaker potency, low ones greater potency.
